55 compounds from PMC12040169 (PLOS Biology, 2025) can be followed below.

This series is described as follows: in vitro. The note with it: human, hela cells, % viability.

With `O=C(N/N=C/C=C/c1ccc([N+](=O)[O-])cc1)C(O)c1ccccc1` (stereo not shown) [CBK261373], the viability at 28.5 h, 10 µM worked out at 81.5%. The same measure, in the same setting: the figure for `COc1ccc(OCC(=O)N/N=C/c2ccc([N+](=O)[O-])s2)c(I)c1` [CBK261374] is 93.1%; for `O=C(N/N=C\c1cccc2ccccc12)c1ccc(CO)nc1` [CBK261377] it is 104%. As to `C1CN(c2nc(N3CCOCC3)nc(N3CCOCC3)n2)CCN1` [CBK261380], the viability at 28.5 h, 10 µM came to 84.9%.

For the compound `CC1=C(C(=O)Nc2ccccc2)C(c2cccs2)C(C#N)=C(SCC(=O)c2ccc(Br)cc2)N1` (stereo not shown) [CBK261384], the viability at 28.5 h, 10 µM is 104%.

With `O=C(/C=C\c1ccco1)Oc1ccc(/C=N\NC(=O)c2cncc(Br)c2)cc1` [CBK261385], the viability at 28.5 h, 10 µM is 83.2%. On the same count and under the same terms, to `CCOc1cc(/C=N/NC(=O)c2cncc(Br)c2)c(Br)c(Br)c1O` [CBK261386] belongs 86.3%; to `COc1ccccc1/C=N/C12CN3CN(CN(C3)C1)C2` [CBK261387], 93%. Still for that read-out and setting: to `C=C(C)C(=O)OCCOC(=O)c1cc(N)cc(N)c1` [CBK261389] belongs 101%; to `O=C1c2ccc3c4c(ccc(c24)C(=O)N1c1ccncc1)C(=O)N(c1ccncc1)C3=O` [CBK261390], 95.4%; to `CC(C)(C)C(=O)Nc1ccc(-c2ccc(NC(=O)C(C)(C)C)c(C(=O)O)c2)cc1C(=O)O` [CBK261392], 108%. On the same count and under the same terms, to `CC(C)(C)C(=O)Nc1ccc(Cc2ccc(NC(=O)C(C)(C)C)c(C(=O)O)c2)cc1C(=O)O` [CBK261393] belongs 104%; to `O=C(Nc1ccc(Br)cc1C(=O)O)c1cccc(C(=O)Nc2ccc(Br)cc2C(=O)O)c1` [CBK261395], 90.5%.

Turning to `O=C1c2ccc(Oc3ccc4c(c3)C(=O)N(c3ccncc3)C4=O)cc2C(=O)N1c1ccncc1` [CBK261399], the viability at 28.5 h, 10 µM was found to be 96.5%. On to `O=C(O)c1ccc(N2C(=O)CC(N3CCN(C/C=C/c4ccccc4)CC3)C2=O)cc1` (stereo not shown) [CBK261402], for which the viability at 28.5 h, 10 µM was 92.6%.

On to `O=C(NC(C(=O)O)C12CC3CC(CC(C3)C1)C2)c1ccc([N+](=O)[O-])cc1` (stereo not shown) [CBK261405], for which the viability at 28.5 h, 10 µM is 94.7%. The same measure, in the same setting: the figure for `O=C(NC(Nc1ncccn1)C(Cl)(Cl)Cl)c1ccccc1` (stereo not shown) [CBK261408] is 107%; for `O=C1N(Cc2cccc3ccccc23)c2ccccc2C1(c1ccc(O)cc1)c1ccc(O)cc1` [CBK261410] it is 88.4%; for `CCOC(=O)CC(=O)Nc1c(Br)cc(Br)cc1C(=O)O` [CBK261412] it is 95.2%.

Consider `NNC(=O)CCn1c2ccc(Cl)cc2c2cc(Cl)ccc21` [CBK261413], for which the viability at 28.5 h, 10 µM came out at 88.8%. Still for that read-out and setting: to `O=C(O)CCn1c2ccc(Cl)cc2c2cc(Cl)ccc21` [CBK261415] belongs 89.5%; to `OC(Cn1cnc(-c2ccccc2)c1-c1ccccc1)Cn1c2ccccc2c2ccccc21` (stereo not shown) [CBK261416], 78.2%; to `OC(CN(c1ccccc1)c1ccccc1)Cn1cnc2ccccc21` (stereo not shown) [CBK261417], 86.8%. Still for that read-out and setting: the figure for `Cc1nc([N+](=O)[O-])c(N2CCN(C)CC2)n1Cc1ccccc1` [CBK261421] is 100%.

Take `O=C(O)C1CCCN1S(=O)(=O)c1ccc([N+](=O)[O-])cc1` (stereo not shown) [CBK261424]: the viability at 28.5 h, 10 µM stood at 89.7%. On the same count and under the same terms, to `O=C1NCCN/C1=C\C(=O)c1ccc(Br)cc1` [CBK261427] belongs 90.2%; to `O=[N+]([O-])c1ccc(-c2nc(-c3ccccc3)c(-c3ccc4oc5ccc(-c6[nH]c(-c7ccc([N+](=O)[O-])cc7)nc6-c6ccccc6)cc5c4c3)[nH]2)cc1` [CBK261434], 93.9%; to `O=C(O)CCC/N=C1/CCCc2ccccc2N1` [CBK261435], 104%. `CCOc1ccc(N2C(=O)NC(=O)/C(=C\NC(C)(CO)CO)C2=O)cc1` [CBK261437]: the viability at 28.5 h, 10 µM (bulk resorufin, single well) stood at 99.5%. Same read-out and setting: the figure for `O=C1NC(=O)C(=NNc2ccc(S(=O)(=O)O)cc2)C(=O)N1` [CBK261439] is 88.7%.

On to `COc1nccnc1NS(=O)(=O)c1ccc(Nc2c([N+](=O)[O-])cc([N+](=O)[O-])c3nonc23)cc1` [CBK261441], for which the viability at 28.5 h, 10 µM turned out to be 87.5%. On the same count and under the same terms, to `CCc1nnc(NS(=O)(=O)c2ccc(Nc3ccc([N+](=O)[O-])c4nonc34)cc2)s1` [CBK261442] belongs 92.3%; to `O=[N+]([O-])c1c(N(CCO)CCO)cc(Cl)c2nonc12` [CBK261446], 92.5%.

Regarding `O=[N+]([O-])c1ccc(N(CCO)CCO)c2nonc12` [CBK261447], the viability at 28.5 h, 10 µM was determined as 98.7%. `Cc1nnc(NCCO)c2ccccc12` [CBK261448]: the viability at 28.5 h, 10 µM came out at 112%. On the same count and under the same terms, the figure for `Cn1c2ccccc2c2cc(/C=C(/NC(=O)c3ccccc3)C(=O)Nc3cccc(O)c3)ccc21` [CBK261449] is 111%; for `O=C(Nc1cccc(Br)c1)/C(=C\c1cccnc1)NC(=O)c1ccccc1` [CBK261450] it is 85.8%; for `O=C(c1ccncc1)C12CN3CN(CN(C3)C1)C2` [CBK261451] it is 97.6%. The same measure, in the same setting: the figure for `CCCCNS(=O)(=O)c1ccccc1[N+](=O)[O-]` [CBK261456] is 93.1%; for `O=C(N/N=C/c1ccccc1O)c1cccc(C(=O)N/N=C/c2ccccc2O)n1` [CBK261459] it is 111%; for `O=C(O)c1ccccc1C(=O)OCCN1CCOCC1` [CBK261462] it is 85.4%. The same measure, in the same setting: to `CCOC(=O)C(Cc1ccccc1)C(=O)Nc1ccc(Cl)cc1` (stereo not shown) [CBK261463] belongs 84.2%.

For the compound `CN1C2CCC1CC(OC(=O)CCN1CCCC1)C2` (stereo not shown) [CBK261466], the viability at 28.5 h, 10 µM turned out to be 95.3%. Same read-out and setting: to `O=C1CCCN1C(=O)CN1CCOCC1` [CBK261467] belongs 117%; to `CCN(CC)CCNc1c(N)c(=O)oc2ccccc12` [CBK261469], 91.7%. As for `O=c1oc2ccccc2c2c1nnn2CCCN1CCOCC1` [CBK261470C], the viability at 28.5 h, 10 µM turned out to be 95.2%. Still for that read-out and setting: the figure for `CN(C)CCNc1c(N)c(=O)oc2ccccc12` [CBK261472] is 89.7%. Same read-out and setting: to `O=C(N/N=C\c1ccccc1O)c1nc([N+](=O)[O-])n[nH]1` [CBK261475] belongs 99.8%; to `CC1(C)Cc2nc3[nH]nc(N)c3cc2CO1` [CBK261476], 93.9%. Same read-out and setting: to `CCC(=O)Nc1nc2ccccc2n1CCN1CCOCC1` [CBK261477] belongs 101%; to `Cc1n[nH]c(NNC(=O)COc2ccc(Cl)cc2)c1[N+](=O)[O-]` [CBK261478], 98.2%; to `O=C(O)c1ccc(/C=N/NC(=O)C2COc3ccccc3O2)cc1` (stereo not shown) [CBK261481], 100%.

As for `Cc1[nH]c2ccccc2c1/C=N/NC(=O)C1COc2ccccc2O1` (stereo not shown) [CBK261482], the viability at 28.5 h, 10 µM is 90.9%. Still for that read-out and setting: the figure for `O=[N+]([O-])c1ccc2c(/C=N/c3ccc(-c4nc5ccccc5s4)cc3)c(O)ccc2c1` [CBK261483] is 92.3%; for `O=C(N/N=C/C1C=Nc2ccccc21)c1cc([N+](=O)[O-])cc([N+](=O)[O-])c1` (stereo not shown) [CBK261485] it is 89.8%.
